{"source": "patent US20150189882A1", "about": "“ACTIVE INGREDIENT COMBINATIONS HAVING INSECTICIDAL AND ACARICIDAL PROPERTIES” (priority 2011, published 2015)", "key": {"Spodoptera frugiperda": {"system": "Spodoptera frugiperda", "assay": "Spodoptera frugiperda - spray application", "type": "in vivo", "conditions": "Spodoptera frugiperda; for mortality at 4 g/ha: 4 g ai/ha; for mortality at 20 g/ha: 20 g ai/ha; for mortality at 100 g/ha: 100 g ai/ha", "experimental": "(§1) To produce a suitable preparation of active compound, 1 part by weight of active compound is mixed with the stated amount of solvent and emulsifier, and the concentrate is diluted with emulsifier-containing water to the desired concentration. To produce a suitable preparation of a biological suspension the cells, viruses or spores are diluted with emulsifier-containing water to the desired concentration.\nCabbage (Brassica oleracea) leaf-discs are sprayed with a preparation of the active ingredient at the desired concentration. Once dry, the leaf discs are infested with larvae of the fall army worm (Spodoptera frugiperda).\nAfter the specified period of time, mortality in % is determined. 100% means that all the caterpillars have been killed; 0% means that none of the caterpillars have been killed. The mortality values thus determined are recalculated using the Colby-formula."}, "[1]": {"system": "Tetranychus urticae (OP-resistant)", "assay": "Tetranychus urticae - test (OP-resistant), French bean leaf discs", "type": "in vivo", "conditions": "Tetranychus urticae, foliar; for mortality at 4 g/ha: 4 g ai/ha", "experimental": "as §1, with “cells” for “cells, viruses”\nLeaf discs of French beans (Phaseolus vulgaris) infected with all instars of the Two-spotted spider mite (Tetranychus urticae), are sprayed with a preparation of the active ingredient at the desired concentration.\nAfter the specified period of time mortality in % is determined. 100% means that all spider mites have been killed; 0% means that none of the spider mites have been killed."}, "[2]": {"system": "Tetranychus urticae (OP-resistant)", "assay": "Tetranychus urticae - test; OP-resistant (TETRUR), bean plants sprayed", "type": "in vivo", "experimental": "as §1, with “the desired concentration Ammonium salt and/or penetration enhancer in a dosage of 1000 ppm are added to the desired concentration if necessary. To produce” for “the desired concentration. To produce”, “suspension the cells or spores” for “suspension the cells, viruses or spores”\nBean plants (Phaseolus vulgaris) which are heavily infested with all stages of the two-spotted spider mite (Tetranychus urticae) are treated by being sprayed with the preparation of the active compound of the desired concentration.\nAfter the specified period of time, mortality in % is determined 100% means that all the spider mites have been killed; 0% means that none of the spider mites have been killed."}, "soybean (Glycine max) [3]": {"system": "soybean (Glycine max)", "assay": "Seed treatment - germination test soybean", "type": "in vivo", "conditions": "0.15 g ai/kg seeds", "experimental": "Seeds of soybean (Glycine max) were treated by being mixed with the desired amount of active compound and spores and water. After drying, 25 seeds were sown into each pot filled with sandy loam.\nAfter the specified period of time the level of activity expressed in % was determined. The level of activity was calculated on the basis of the number of soybean plants which have successfully germinated."}, "soybean (Glycine max) [4]": {"system": "soybean (Glycine max)", "assay": "Shoot weight - soybean (seed treatment)", "type": "in vivo", "conditions": "0.3 g ai/kg seeds", "experimental": "Seeds of soybean (Glycine max) were treated by being mixed with the desired amount of active compound and spores and water. After drying, each seed was sown into a pot filled with loamy sand. The pots were placed in the greenhouse with conditions appropriate for good plant growth.\nAfter the specified period of time the plants were harvested and the shoot weight of the plants was determined. The weight is expressed in % whereupon the weight of the control is set 100%."}, "Myzus persicae": {"system": "Myzus persicae", "assay": "whole plant or invertebrate", "conditions": "in Brassica rapa, foliar"}, "[5]": {"system": "Phaedon cochleariae larvae", "assay": "whole plant or invertebrate"}, "[6]": {"conditions": "read-out: Mortality in % after 2^d"}, "[7]": {"conditions": "read-out: Mortality in % after 6^d"}, "[8]": {"conditions": "read-out: Mortality in % after 1^d"}}, "note": "Read-outs that look alike come from different tables or passages of the source.", "data": [{"smiles": "Cc1cc(F)c(-n2nc(C(F)(F)F)nc2N)cc1[S+]([O-])CC(F)(F)F", "note": "(racemic) [Compound (I)]", "values": [{"measurement": "mortality at 0.8 g/ha", "setting": "Spodoptera frugiperda; 0.8 g ai/ha, read-out: Mortality in % after 6^d", "result": 0, "unit": "%"}, {"measurement": "mortality at 4 g/ha", "setting": "Spodoptera frugiperda; [6]", "result": 0, "unit": "%"}, {"measurement": "mortality at 4 g/ha", "setting": "Spodoptera frugiperda; [7]", "result": 0, "unit": "%"}, {"measurement": "mortality at 20 g/ha", "setting": "Spodoptera frugiperda; [6]", "result": 0, "unit": "%"}, {"measurement": "mortality at 20 g/ha", "setting": "Spodoptera frugiperda; [7]", "result": 0, "unit": "%"}, {"measurement": "mortality at 100 g/ha", "setting": "Spodoptera frugiperda; [6]", "result": 0, "unit": "%"}, {"measurement": "mortality at 100 g/ha", "setting": "Spodoptera frugiperda; [7]", "result": 0, "unit": "%"}, {"measurement": "mortality at 4 g/ha", "setting": "[1]; [6]", "result": 30, "unit": "%"}, {"measurement": "mortality at 4 g/ha", "setting": "[1]; [7]", "result": 30, "unit": "%"}, {"measurement": "mortality at 20 g/ha", "setting": "[1]; 20 g ai/ha, read-out: Mortality in % after 2^d", "result": 80, "unit": "%"}, {"measurement": "mortality at 0.8 ppm", "setting": "[2]; read-out: Mortality in % after 3^d", "result": 40, "unit": "%"}, {"measurement": "mortality at 0.8 ppm", "setting": "[2]; read-out: Mortality in % after 5^d", "result": 40, "unit": "%"}, {"measurement": "% Germination after 3 days control was set 100%", "setting": "soybean (Glycine max) [3]", "result": 97, "unit": "%"}, {"measurement": "Shoot weight after 21 days control was set 100%", "setting": "soybean (Glycine max) [4]", "result": 98, "unit": "%"}, {"measurement": "mortality at 4 g/ha", "setting": "Myzus persicae; [8]", "result": 0, "unit": "%"}, {"measurement": "mortality at 20 g/ha", "setting": "Myzus persicae; [8]", "result": 0, "unit": "%"}, {"measurement": "mortality at 100 g/ha", "setting": "Myzus persicae; [8]", "result": 0, "unit": "%"}, {"measurement": "mortality at 4 g/ha", "setting": "Myzus persicae; [7]", "result": 0, "unit": "%"}, {"measurement": "mortality at 20 g/ha", "setting": "Myzus persicae; [7]", "result": 0, "unit": "%"}, {"measurement": "mortality at 100 g/ha", "setting": "Myzus persicae; [7]", "result": 0, "unit": "%"}, {"measurement": "mortality at 0.8 g/ha", "setting": "[5]; [6]", "result": 0, "unit": "%"}, {"measurement": "mortality at 4 g/ha", "setting": "[5]; [6]", "result": 0, "unit": "%"}, {"measurement": "mortality at 20 g/ha", "setting": "[5]; [6]", "result": 0, "unit": "%"}, {"measurement": "mortality at 100 g/ha", "setting": "[5]; [6]", "result": 0, "unit": "%"}, {"measurement": "mortality at 4 g/ha", "setting": "[5]; [7]", "result": 0, "unit": "%"}, {"measurement": "mortality at 20 g/ha", "setting": "[5]; [7]", "result": 0, "unit": "%"}, {"measurement": "mortality at 100 g/ha", "setting": "[5]; [7]", "result": 0, "unit": "%"}]}]}
